From US8623649B2, “Method of selecting a cardiomyoctye using intracellular mitochondria as an indicator” (Daiichi Sankyo Company, Limited, priority 2004, dated 2014)
“Also recorded” adds a separate entry of the source.

Key:
Assay type in all cases: cell-based
[1] = test system: cell mixture derived from a whole heart extracted from neonatal rat heart; assay: Labeling of neonatal rat whole-heart cell mixture with mitochondrial indicator, FACS sorting, anti-Sarcomeric α-Actinin immunostaining; details: for percentage of cardiomyocyte in cells with relatively higher fluorescent intensity (P5 area): cultured 24 hours
Experimental: (§1) Neonatal rats 1-3 days after birth were sacrificed by cervical dislocation after ether anesthesia, after which the heart of each rats was isolated. Cardiac ventricle isolated from the heart was treated with 0.025% (w/v) of collagenase (available from Warthington Biomedical Corporation) in serum free D-MEM (High-glucose) medium (available from Invitrogen). By digesting the cardiac ventricle using collagenase, cells were dispersed in the medium to prepare a cell mixture derived from a whole heart.
(§2) Subsequently, the culture medium was replaced by D-MEM (High-glucose) medium (available from Invitrogen) supplemented with 10% (final concentration) of fetal bovine serum (available from JRH Bioscience). Thus prepared cultured cells were incubated in the culture medium containing 100 nM (final concentration) of a mitochondrial indicator, M7512 (available from Molecular Probe) for 10 minutes at 37° C. After incubation, the cells were washed 4 times using the culture medium and further cultured for 24 hours at 37° C.
The cell mixture derived from a whole heart was prepared in accordance with the method described in Example 1 and labeled with M7512. The labeled cell mixture derived from a whole heart was subjected to analysis of distribution of the cells of the cell mixture derived from a whole heart using FACS (registered trademark) (BD, Franklin Lakes, N.J. USA).
In this example, cells of P5 area were sorted as a cardiomyocyte and cells of P6 area were sorted as a non-cardiomyocyte, each then being separately subjected to the cell culture.
(§3) Next, the fixed cells were labeled with a cardiomyocyte marker, mouse anti-Sarcomeric α-Actinin Antibody (available from SIGMA), which were visualized using green fluorescent material-conjugated goat anti-mouse antibody (available from Molecular Probes).
In this example, the cell mixture derived from a whole heart extracted from a neonatal rat heart, which was labeled with a mitochondrial indicator, was prepared by the same method as that described in Example 1, except that T3168 (available from Molecular Probe) was used as a mitochondrial indicator.
Thus selected cells were cultured followed by paraformaldehyde fixation by the same method as that described in Example 5, which were labeled with mouse anti-Sarcomeric α-Actinin Antibody (available from SIGMA).
Neonatal rat heart was treated with 0.025% (w/v) of collagenase (available from SIGMA) and trypsin (available from GIBCO) to collect a cell population. Cells dispersed in the culture medium were exposed to 1 μM (final concentration) of a mitochondrial indicator, T668 (available form Molecular Probe) for 15 minutes at 37° C., washed 3 times, and immediately analyzed by FACS.
Neonatal rat heart was treated with collagenase and trypsin to collect a cell population. Cells dispersed in the culture medium were exposed to 1 μM (final concentration) of a mitochondrial indicator S7563 for 15 minutes at 37° C., washed 3 times, and immediately analyzed by FACS.

[2] = test system: cell mixture derived from a whole heart extracted from neonatal rat heart; assay: Fluorescent microscope observation of labeled neonatal rat whole-heart cell mixture; details: 100 nM, 10 minutes at 37° C., cultured 24 hours
Experimental: as §1, §2

[3] = test system: cell mixture derived from a mouse embryonic stem cell; assay: Labeling of mouse embryonic stem cell derived cell mixture with mitochondrial indicator, FACS sorting, Actinin immunostaining
Source text: as §3

[4] = test system: cell mixture derived from a mouse embryonic stem cell; assay: Fluorescent microscope observation of labeled mouse embryonic stem cell derived cell mass; details: labeled as Example 1, adhesion culture 5 days after removal of M7512
Experimental: Fourteen days after differentiation and induction, a cell mass containing an autonomously pulsating cardiomyocyte was confirmed to be formed in the culture vessel, to which 10^−8 M of all trans-retinoic acid was added for further enhancing the degree of differentiation/induction of the cardiomyocyte.
At 21st day from differentiation/induction, a cell mass containing an autonomously pulsating cardiomyocyte was dispersed into separate cells to form a cell mixture. Thus prepared cell mixture was labeled with M7512 under the same condition as that of Example 1 and cultured under the condition of the adhesion culture for further 5 days after removal of M7512. After further culture for 5 days, a cell mass containing an autonomously pulsating cardiomyocyte prepared under the culture condition was observed using a fluorescent microscope.

[5] = test system: rat cells derived from a whole heart; assay: Staining of rat whole-heart cells from 11th day post conception to 8 days after birth and FACS analysis; details: 11th day post conception to 8 days after birth; 1 μM, 15 minutes at 37° C.
Experimental: Rat heart obtained at 11th day post conception to 8 days after birth was treated with collagenase and trypsin to collect a cell population. Cells dispersed in the culture medium were exposed to 1 μM (final concentration) of a mitochondrial indicator T668 for 15 minutes at 37° C., washed 3 times, and immediately analyzed by FACS. In consequence, the cell population was isolated by T668 fluorescent intensity. […] Therefore, it is shown that it is possible to presume the maturity of the cardiomyocyte by the method provided by the present specification.

whole fetal cells = assay: Staining of whole fetal cells (fetal rat of 9th day post conception), FACS sorting, Actinin immunostaining; details: 1 μM, 15 minutes at 37° C.
Experimental: Fetal rat of 9th day post conception was treated with collagenase and trypsin to collect cell population. Cells dispersed in the culture medium were exposed to 1 μM (final concentration) of a mitochondrial indicator T668 for 15 minutes at 37° C., washed 3 times, and immediately subjected to FACS analysis. One single cell population was mainly observed as a cell population based on the fluorescent intensity. On the other hand, in the high fluorescent intensity area in which the cardiomyocyte was predicted to be detected based on the analysis of a whole heart sample from the later development stage, a definite cell population could not be found (FIG. 10-1).
The cells were cultured and immunostained with an antibody against a cardiomyocyte marker, Actinin. […] Since the cardiomyocyte is extremely immature in the fetus of 9th day post conception (early embryo), it is considered in the art that quantitative alteration of the mitochondria has not completely occurred.

[6] = test system: fetal rat cells derived from a whole heart; assay: Staining of fetal rat whole-heart cells (13th day post conception), FACS sorting, anti-Actinin immunostaining; details: fetal rat heart of 13th day post conception; 1 μM, 15 minutes at 37° C.
Experimental: Fetal rat heart of 13th day post conception was treated with collagenase and trypsin to collect a cell population. Cells dispersed in the culture medium were exposed to 1 μM (final concentration) of a mitochondrial indicator T668 for 15 minutes at 37° C., washed 3 times, and immediately subjected to FACS analysis. The cells were separated into 3 groups of cell population based on T668 fluorescent intensity (FIG. 9-1).
Then, the cardiomyocyte was identified by immunostaining of the cultured cell using anti-Actinin antibody.

[7] = test system: neonatal rat cells derived from a whole heart; assay: Double staining with T668 and M7514, comparative FACS analysis of transmembrane potential per mitochondria
Experimental: Cell population was collected using the same materials and the same method as those described in Example 8. Thus collected cardiomyocytes were stained with a mitochondrial indicator, M7514 (available from Molecular Probe), independent of the transmembrane potential which can specifically stain mitochondria and with a mitochondrial indicator T668 dependent on the transmembrane potential which can also specifically stain mitochondria. The cells were analyzed using FACS immediately after the staining. It is possible to separately detect the fluorescence of T668 and that of M7514 since the wavelength of the fluorescence from T668 is different from that from M7514. In this example, three groups of cell population were detected based on T668 fluorescence as an indicator.
Next, each cell population is separated based on the ratio of fluorescent intensity derived from T668 divided by fluorescent intensity derived from M7514. […]

[8] = 100 nM indicator, 10 minutes at 37° C., FACS sorted, anti-Sarcomeric α-Actinin, 30% before selection
[9] = 1 μM indicator, 15 minutes at 37° C., immediate FACS, anti-Actinin immunostaining
[10] = 1 μM, 15 minutes at 37° C., immediate FACS, Actinin immunostaining

For `ClCc1ccc(C2=c3cc4c5c(c3Oc3c2cc2c6c3CCCN6CCC2)CCC[N+]=5CCC4)cc1.[Cl-]` [M7512, 1H,5H,11H,15H-Xantheno[2,3,4-ij:5,6,7-i′j′]diquinolizin-18-ium, 9-[4-(chloromethyl)phenyl]-2,3,6,7,12,13,16,17-octahydro-, chloride], the “percentage of cardiomyocyte in cells with relatively higher fluorescent intensity (P5 area)” value [1, 8] was “more than 99%”, the “percentage of cardiomyocyte in cells with relatively lower fluorescent intensity (P6 area)” value [1, 8] was “approximately equal to the percentage of the cardiomyocyte before the selection” and the “indicator-based fluorescence under fluorescent microscope” value [2] was “clearly observed in a cardiomyocyte”. For the same molecule, the “percentage of cardiomyocyte in cells collected from P2 area (relatively higher fluorescent intensity)” value ([3]; M7512 labeling as Example 1, 5 days culture after removal, 10% before selection) was “more than 80%” and the “labeling of autonomously pulsating cardiomyocytes compared with other types of cells” value [4] was “strongly labeled”.

For `COC(=O)c1ccccc1-c1c2ccc(=N)cc-2oc2cc(N)ccc12.Cl` [R302], the “composition of cell population with the highest fluorescent intensity” value [1, 9] was “cells of interest can also be obtained”.

In the case of `COC(=O)c1ccccc1-c1c2ccc(N(C)C)cc2[o+]c2cc(N(C)C)ccc12` [T668, Xanthylium, 3,6-bis(dimethylamino)-9-(2-(methoxycarbonyl)phenyl)-, perchlorate], the “composition of cell population with the highest fluorescent intensity” value [1, 9] is reported as “almost all cells of the cell population with the highest intensity of T668 fluorescent signal consist of a cardiomyocyte”, the “composition of cell population with the middle fluorescent intensity” value [1, 9] is reported as “almost all cells of the cell population with the middle fluorescent intensity consist of a non-cardiomyocyte” and the “composition of main cell population” value [3, 10] is reported as “Almost all of the cells collected consist of a non-cardiomyocyte”. The “percentage of cardiomyocyte in high fluorescent cell population” value [3, 10] was “More than 98%”, the “high fluorescent cardiomyocyte population as the development stage progressed” value [5] was “increased in number” and the “percentage of cardiomyocyte in high fluorescent cell population” value (whole fetal cells) was “more than 95%”. The “composition of cell population with the highest fluorescent intensity” value [6] was “almost all cells of the cell population with the highest intensity of T668 consist of a cardiomyocyte; also recorded: almost all cells of the cell population with the highest intensity of T668 fluorescent signal consist of the cardiomyocyte”, the “composition of cell population with the middle fluorescent intensity” value [6] was “almost all cells of the cell population with the middle fluorescent population consist of a non-cardiomyocyte; also recorded: almost all cells of the cell population with the middle fluorescent intensity consist of the non-cardiomyocyte” and the “cells with ratio of T668 fluorescent intensity to M7514 fluorescent intensity of more than 150%, share of total cells” value ([7]; cell population identified as a cardiomyocyte based on T668 signal) was 90%. For the same molecule, the “cells with ratio of T668 fluorescent intensity to M7514 fluorescent intensity of more than 150%, share of total cells” value ([7]; cell population identified as a non-cardiomyocyte based on T668 signal) was 13%.

For `CCN1C(=CC=Cc2n(CC)c3cc(Cl)c(Cl)cc3[n+]2CC)N(CC)c2cc(Cl)c(Cl)cc21` [T3168, 1H-Benzimidazolium, 5,6-dichloro-2-[3-(5,6-di-chloro-1,3-diethyl-1,3-dihydro-2H-benzimidazol-2-ylidene)-1-propenyl]-1,3-diethyl-, iodide, (E)-], the “percentage of cardiomyocyte in cells with relatively higher fluorescent intensity (P5 area)” value [1, 8] was “more than 95%”.
